Here are results for 4 compounds from patent publication US8633319B2, “7-(1H-pyrazol-4-yl)-1,6-naphthyridine compounds as Syk inhibitors” (Glaxo Group Limited, priority 2010, dated 2014).

The subject of one series is Ramos B cells. The series is described as follows: Ramos pErk Assay. It counts as cell-based. As to conditions: Homo sapiens, as the hydrochloride salts, anti-IgM stimulated. The protocol: Ramos B cells (human B cells of Burkitt's Lymphoma) are stimulated using anti-IgM. […] The subsequent autophosphorylation of Syk leads to initiation of a signalling cascade resulting in B cell activation via the Erk MAP Kinase pathway. As a result Erk is phosphorylated and following cell lysis is detected by an immune capture assay.
Cells were plated at a density of 2.5×10^5/well in a volume of 25 μl assay medium (RPMI containing 10% heat inactivated foetal calf serum, 1% L-glutamine) in 96 v-well polypropylene plates. 25 μl appropriately diluted compound solution was added and the plate incubated for 30 min at 37° C. with 5% CO2. Cells were stimulated with 5 μl Fab′2 fragments of goat anti-human IgM (5 μg/ml final) for 7 min at 37° C. Cells are lysed by the addition of 55 μL 2×RIPA lysis buffer for 2 h at 4° C. Lysate may be frozen at this point at −80° C.
50 μl cell lysate was transferred to a 96 well MSD plate coated with anti-pErk1/2 (Thr/Tyr:202/204; 185/187) capture antibody and incubated for 16 hours at 4° C. or 3 hours at room temperature. The plate was washed and an anti-pErk detection antibody added (25 μl/well) for 1 hour at room temperature. This was removed, 150 μL MSD read buffer added and the resultant electrochemiluminescence signal measured.
Compound was prepared as a 10 mM stock in DMSO and a dilution series prepared in DMSO using 9 successive 5-fold dilutions. This dilution series was diluted a further 1:100 with assay medium to give the final concentration range to be tested of 5×10^−5 to 2.56×10^−11M. Compound dilutions were prepared using the Biomek 2000 and Biomek Nx automated robotic pipetting systems.

The subject of series [1] is Salmonella typhimurium strains and Escherichia coli. In words: Bacterial Mutation Screening Assay (Ames Test). As to conditions: as the free base; presence and absence of S9-mix. An excerpt: The bacterial mutation assay (Ames Test) is a short-term reverse mutation assay specifically designed to detect a wide range of chemical substances that can produce genetic damage that leads to gene mutations (base pair substitutions and frameshift mutations).
The test employs several histidine dependent Salmonella typhimurium strains and several tryptophan dependent strains of Escherichia coli each carrying different mutations in various genes in the histidine or tryptophan operon respectively. These mutations act as hot spots for mutagens that cause DNA damage via different mechanisms.
Briefly, bacteria are cultured for 10 h prior to the test. Top agar is supplemented with trace amounts of histidine, biotin, and tryptophan and aliquoted, before adding the required test article, vehicle or positive control followed by the appropriate bacterial suspension, and either an exogenous mammalian oxidative metabolism system (S9-mix) or buffer solution. The final mixture is poured over minimal agar plates which are then inverted and incubated before scoring for revertant colonies.
Bacterial Strains routinely used are Salmonella typhimurium strains TA98, TA100 TA1535 and TA1537 and Escherichia coli WP2 uvrA (pKM101).
Assays are performed in the presence and absence of an exogenous mammalian oxidative metabolising system (S9-mix), to mimic mammalian metabolism.
The highest concentration tested is one that allows maximum exposure up to 5000 μg/plate for freely soluble compounds, or the limit of solubility or toxicity (whichever is the lower). If compound solubility is a limiting factor, the maximum concentration chosen will be the lowest concentration at which compound precipitate is observed by eye on treatment plates at the end of the incubation period.
A single mutation assay (using the plate incorporation methodology) is conducted in the presence and absence of S9-mix (consisting of 4 replicate plates for vehicle controls and 2 replicate plates for the positive controls and test article).
Plates are usually scored electronically for bacterial colony formation following inspection of the plates for signs of toxicity (i.e. reduced growth (diminution) of background lawn, the presence of pin-dot/pseudorevertant colonies and/or a reduction in colony numbers). Plates will also be evaluated (by eye) for compound precipitation. […]
The number of colonies on each plate is recorded and mean values calculated for each concentration of test article used. Mean values are also be expressed as a ratio of the mean concurrent vehicle control value (i.e. fold increase). […]

Another series has as its target T1, hERG (Homo sapiens, UniProt Q12809).
T1 construct: expressed in transfected cells; host or cells: CHO-K1 cells stably expressing human hERG; membrane fraction
In words: Cy3B Dofetilide Fluoro-Ligand Binding Assay for hERG. As to conditions: membranes of CHO-K1 cells that express hERG, pH 7.4, probe Cy3b-Dofetilide fluoro-ligand, 1.0 nM, hERG-expressing CHO-K1 membranes. The protocol: Compound potencies were determined by a fluoro-ligand^§ (Cy3b-Dofetilide) fluorescence polarisation assay.
hERG-expressing CHO-K1 membranes* (60 μg/ml) were incubated with 1.0 nM fluoro-ligand^§, in assay buffer (25 mM HEPES, 1.2 mM MgCl2, 100 mM KCl and 0.1% pluronic, pH adjusted to 7.4 using 5M KOH). The final potassium concentration in the assay was 100 mM. After 70 min mixing at room temperature, in the dark, 10 μl was dispensed into each well of a black LV Greiner 384-well plate containing 0.1 μl of test compound in DMSO. The plates were left to equilibrate for 2 h before reading on an Acquest™/Analyst™ imager. pIC50 data were generated using from an 11-point inhibition curve (top assay concentration of 50 μM and a 1:3 step-dilution), a […] curve-fit being applied using ABase and XC50 to analyse data and generate curve fits.
Chinese Hamster Ovary (CHO) cells stably expressing the human hERG receptor were grown to 80% confluency before being harvested by trypsinisation and subsequent centrifugation at 500 g for 10 min. Cell pellets were frozen at −80 C before membrane production. The frozen pellet was thawed on ice, re-suspended and homogenised in 10 volumes of membrane buffer (50 mM HEPES, pH 7.4, 1 mM EDTA, 1 mM PMSF, 2×10^-6M Pepstatin A). The membrane suspension was centrifuged for 20 min at 500 g, the pellet discarded and the supernatent spun again at 48,000 g for 30 min. Following the second centrifugation the remaining pellet containing the membrane fraction was re-suspended in an appropriate volume (4 ml for each ml of frozen cell pellet) and assayed for protein concentration.
For orientation: hERG is a cardiac potassium channel; its block is linked to QT prolongation.

Setting [2] is: as the free base, read-out: average IC50.
The mark [3] stands for this setting: form not stated (first list), read-out: average pIC50 (converted).
Where [4] appears, read: hydrochloric acid salts, read-out: average IC50.
Where [5] appears, read: hydrochloric acid salts, read-out: average pIC50 (converted).

Read-outs that look alike come from different tables or passages of the source. A value given as a limit tells only on which side of the number the result lay.

T1 sequence (Q12809 whole entry): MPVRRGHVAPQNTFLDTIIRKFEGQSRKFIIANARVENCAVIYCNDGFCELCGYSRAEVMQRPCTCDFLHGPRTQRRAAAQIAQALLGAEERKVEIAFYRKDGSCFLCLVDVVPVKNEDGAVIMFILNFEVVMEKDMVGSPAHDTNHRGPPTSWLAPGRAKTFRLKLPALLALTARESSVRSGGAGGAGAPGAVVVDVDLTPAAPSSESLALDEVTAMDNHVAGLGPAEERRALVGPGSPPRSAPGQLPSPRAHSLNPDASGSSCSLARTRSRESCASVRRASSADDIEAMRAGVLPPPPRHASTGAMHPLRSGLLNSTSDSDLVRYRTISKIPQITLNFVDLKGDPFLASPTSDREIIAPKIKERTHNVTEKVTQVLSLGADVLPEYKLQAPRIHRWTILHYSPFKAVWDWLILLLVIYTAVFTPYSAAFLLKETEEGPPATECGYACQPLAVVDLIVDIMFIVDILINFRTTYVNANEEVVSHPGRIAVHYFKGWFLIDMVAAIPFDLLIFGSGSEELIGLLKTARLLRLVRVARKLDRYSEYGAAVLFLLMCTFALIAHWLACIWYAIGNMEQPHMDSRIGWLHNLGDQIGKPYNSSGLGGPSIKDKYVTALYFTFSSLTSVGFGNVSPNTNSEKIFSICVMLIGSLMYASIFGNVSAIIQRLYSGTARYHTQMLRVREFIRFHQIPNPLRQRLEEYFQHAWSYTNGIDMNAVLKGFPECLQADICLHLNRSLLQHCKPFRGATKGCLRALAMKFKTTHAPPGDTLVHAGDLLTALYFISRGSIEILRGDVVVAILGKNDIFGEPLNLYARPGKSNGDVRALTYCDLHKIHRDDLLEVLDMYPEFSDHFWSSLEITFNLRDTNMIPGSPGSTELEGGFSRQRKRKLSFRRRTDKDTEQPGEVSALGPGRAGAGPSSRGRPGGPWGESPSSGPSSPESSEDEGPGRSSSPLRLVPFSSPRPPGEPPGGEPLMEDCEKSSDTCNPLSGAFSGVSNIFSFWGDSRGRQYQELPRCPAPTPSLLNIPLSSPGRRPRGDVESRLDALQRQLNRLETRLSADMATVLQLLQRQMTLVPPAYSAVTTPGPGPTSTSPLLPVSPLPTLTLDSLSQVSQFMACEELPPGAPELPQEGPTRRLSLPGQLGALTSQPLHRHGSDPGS

With `CCn1cc(-c2cc3ncccc3c(NC[C@]3(F)CCCNC3)n2)cn1` [Example 1, 7-(1-Ethyl-1H-pyrazol-4-yl)-N-{[(3S)-3-fluoro-3-piperidinyl]methyl}-1,6-naphthyridin-5-amine], in the series on Ramos B cells, the IC50 is less than 1000 nM. In addition, the Ames test result in series [1] is “negative”. The IC50 at 2 h on hERG (setting [2]) is greater than 10 µM; at hERG (setting [3]) it was greater than 10 µM; on hERG (setting [4]), greater than 20 µM; on hERG (setting [5]) it was greater than 10 µM.

Consider `CC(C)(C)n1cc(-c2cc3ncccc3c(NC[C@]3(F)CCCNC3)n2)cn1` [Example 2, 7-[1-(1,1-Dimethylethyl)-1H-pyrazol-4-yl]-N-{[(3S)-3-fluoro-3-piperidinyl]methyl}-1,6-naphthyridin-5-amine], for which the IC50 with Ramos B cells was less than 1000 nM. Further, the Ames test result in series [1] was “negative”. Further, the IC50 at 2 h at hERG (setting [2]) is greater than 10 µM; at hERG (setting [3]), greater than 10 µM; on hERG (setting [4]), greater than 20 µM; at hERG (setting [5]), greater than 10 µM.

Take `COCn1cc(-c2cc3ncccc3c(NC[C@]3(F)CCCNC3)n2)cn1` [Example 3, N-{[(3S)-3-Fluoro-3-piperidinyl]methyl}-7-{1-[(methyloxy)methyl]-1H-pyrazol-4-yl}-1,6-naphthyridin-5-amine]: the IC50 with Ramos B cells was less than 1000 nM. Also, in series [1], the Ames test result is “negative”. Moreover, the IC50 at 2 h at hERG (setting [2]) was greater than 10 µM; at hERG (setting [3]) it was greater than 10 µM; at hERG (setting [4]), greater than 20 µM; at hERG (setting [5]), greater than 10 µM.

`CCn1cc(-c2cc3ncccc3c(OC[C@]3(F)CCCNC3)n2)cn1` [Example 4, 7-(1-Ethyl-1H-pyrazol-4-yl)-5-({[(3S)-3-fluoro-3-piperidinyl]methyl}oxy)-1,6-naphthyridine]: the IC50 in the series with Ramos B cells was less than 1000 nM. In addition, the Ames test result in series [1] is recorded as “negative”. In addition, the IC50 at 2 h was greater than 10 µM at hERG (setting [2]), greater than 10 µM at hERG (setting [3]), greater than 20 µM on hERG (setting [4]) and greater than 10 µM on hERG (setting [5]).
